Laboratory results from patent publication US11352359B2, “PI3K protein kinase inhibitors” (Rhizen Pharmaceuticals SA, priority 2013, dated 2022).

Experiments:
Type in all cases: biochemical
PI3Kδ = PI3Kδ (Homo sapiens, UniProt O00329); assay: Fluorescent determination of PI3Kinase enzyme activity (HTRF), PI3Kδ; conditions: for inhibition at 0.1 µM: 100 nM (underlined values: 300 nM)
Source text: (§1) Fluorescent Determination of PI3Kinase Enzyme Activity
(§2) Phosphoinositide 3 kinases (PI3K) belong to a class of Lipid kinases that play a critical role in the regulation of several key cellular processes. The PI3K are capable of phosphorylating the 3-hydroxy position of phosphoinositols thereby generating second messengers involved in downstream signalling events. The homogenous time resolved fluorescence (HTRF) assay allows detection of 3,4,5-triphosphate (PIP3) formed as a result of phosphorylation of phosphotidylinositol 4,5-biphosphate (PIP2) by PI3K isoforms such as α, […], γ or δ.
(§3) PI3K isoform activity for α, β, γ or δ is to be determined using a PI3K human HTRF™ Assay Kit (Millipore, Billerica, Mass.) with modifications. All incubations were carried out at room temperature. Briefly, 0.5 μl of 40× inhibitor (in 100% DMSO) or 100% DMSO were added to each well of a 384-well black plate (Greiner Bio-One, Monroe, N.C.) containing 14.5 μl 1× reaction buffer/PIP2 (10 mM MgCl2, 5 mM DTT, 1.38 μM PIP2) mix with or without enzyme and incubated for 10 min. After the initial incubation, 5 μl/well of 400 μM ATP was added and incubated for an additional 30 minutes. Reaction was terminated by adding 5 μl/well stop solution (Millipore, Billerica, Mass.). Five microliters of detection mix (Millipore, Billerica, Mass.) were then added to each well and was incubated for 6-18 h in the dark. HRTF ratio was measured on a microplate reader (BMG Labtech, Germany) at an excitation wavelength of 337 nm and emission wavelengths of 665 and 620 nm with an integration time of 400 μsec. Data was analyzed using Graphpad Prism (Graphpad software; San Diego Calif.) for IC50 determination).

PI3Kγ = PI3Kγ (Homo sapiens, UniProt P48736); assay: Fluorescent determination of PI3Kinase enzyme activity (HTRF), PI3Kγ; conditions: for inhibition at 0.1 µM: 100 nM (underlined values: 300 nM)
Source text: as §1, §2, §3

PI3Kα = PI3Kα (Homo sapiens, UniProt P42336); assay: Fluorescent determination of PI3Kinase enzyme activity (HTRF), PI3Kα
Source text: as §1, §2, §3

PI3Kβ = PI3Kβ (Homo sapiens, UniProt P42338); assay: Fluorescent determination of PI3Kinase enzyme activity (HTRF), PI3Kβ
Source text: as §1, §2, §3

Chain of PI3Kδ (O00329 whole entry): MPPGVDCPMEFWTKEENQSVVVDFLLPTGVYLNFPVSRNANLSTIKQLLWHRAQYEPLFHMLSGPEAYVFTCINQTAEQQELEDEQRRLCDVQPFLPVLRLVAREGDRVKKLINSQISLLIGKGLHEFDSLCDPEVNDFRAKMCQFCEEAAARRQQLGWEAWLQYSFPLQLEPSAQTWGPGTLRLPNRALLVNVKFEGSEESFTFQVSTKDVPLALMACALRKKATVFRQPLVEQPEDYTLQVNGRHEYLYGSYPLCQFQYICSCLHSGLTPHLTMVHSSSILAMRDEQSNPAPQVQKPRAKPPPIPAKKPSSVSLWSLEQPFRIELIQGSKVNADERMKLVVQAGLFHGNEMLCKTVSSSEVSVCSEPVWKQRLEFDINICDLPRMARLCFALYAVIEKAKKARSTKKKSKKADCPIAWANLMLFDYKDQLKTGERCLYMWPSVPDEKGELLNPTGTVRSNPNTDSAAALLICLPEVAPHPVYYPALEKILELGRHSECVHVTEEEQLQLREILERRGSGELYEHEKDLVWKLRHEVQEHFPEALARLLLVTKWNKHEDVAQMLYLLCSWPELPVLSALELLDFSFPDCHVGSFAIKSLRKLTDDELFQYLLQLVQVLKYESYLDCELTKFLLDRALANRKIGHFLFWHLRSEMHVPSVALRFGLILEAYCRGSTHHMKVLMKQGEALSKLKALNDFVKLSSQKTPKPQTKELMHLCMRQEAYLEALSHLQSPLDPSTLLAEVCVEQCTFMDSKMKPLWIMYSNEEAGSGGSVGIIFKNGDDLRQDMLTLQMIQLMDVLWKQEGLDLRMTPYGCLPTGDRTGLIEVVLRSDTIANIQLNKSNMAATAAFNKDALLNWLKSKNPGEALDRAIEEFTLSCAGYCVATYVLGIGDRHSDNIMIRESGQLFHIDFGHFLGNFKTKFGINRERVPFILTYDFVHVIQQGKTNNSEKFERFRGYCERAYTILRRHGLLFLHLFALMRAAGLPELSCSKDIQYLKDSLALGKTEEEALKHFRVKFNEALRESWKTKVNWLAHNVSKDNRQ
Chain of PI3Kδ (P27986 whole entry partner): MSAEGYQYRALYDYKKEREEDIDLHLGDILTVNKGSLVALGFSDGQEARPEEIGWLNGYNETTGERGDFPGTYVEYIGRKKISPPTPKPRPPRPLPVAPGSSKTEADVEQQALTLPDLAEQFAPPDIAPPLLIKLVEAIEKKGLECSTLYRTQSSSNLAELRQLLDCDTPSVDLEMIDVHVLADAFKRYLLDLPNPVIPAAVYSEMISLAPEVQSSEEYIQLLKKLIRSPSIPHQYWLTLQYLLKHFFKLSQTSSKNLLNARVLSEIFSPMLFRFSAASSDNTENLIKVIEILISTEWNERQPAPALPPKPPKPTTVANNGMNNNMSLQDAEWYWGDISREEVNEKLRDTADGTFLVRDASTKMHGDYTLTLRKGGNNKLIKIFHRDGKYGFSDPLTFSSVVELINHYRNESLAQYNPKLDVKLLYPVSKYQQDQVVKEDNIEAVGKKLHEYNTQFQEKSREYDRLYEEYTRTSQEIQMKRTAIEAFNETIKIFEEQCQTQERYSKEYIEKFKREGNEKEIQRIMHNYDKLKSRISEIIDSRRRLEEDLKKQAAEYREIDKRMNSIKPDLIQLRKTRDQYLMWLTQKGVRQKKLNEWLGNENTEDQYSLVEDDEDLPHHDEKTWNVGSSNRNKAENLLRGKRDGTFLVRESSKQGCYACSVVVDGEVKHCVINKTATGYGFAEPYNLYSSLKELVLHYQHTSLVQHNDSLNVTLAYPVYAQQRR
Chain of PI3Kα (P42336 whole entry): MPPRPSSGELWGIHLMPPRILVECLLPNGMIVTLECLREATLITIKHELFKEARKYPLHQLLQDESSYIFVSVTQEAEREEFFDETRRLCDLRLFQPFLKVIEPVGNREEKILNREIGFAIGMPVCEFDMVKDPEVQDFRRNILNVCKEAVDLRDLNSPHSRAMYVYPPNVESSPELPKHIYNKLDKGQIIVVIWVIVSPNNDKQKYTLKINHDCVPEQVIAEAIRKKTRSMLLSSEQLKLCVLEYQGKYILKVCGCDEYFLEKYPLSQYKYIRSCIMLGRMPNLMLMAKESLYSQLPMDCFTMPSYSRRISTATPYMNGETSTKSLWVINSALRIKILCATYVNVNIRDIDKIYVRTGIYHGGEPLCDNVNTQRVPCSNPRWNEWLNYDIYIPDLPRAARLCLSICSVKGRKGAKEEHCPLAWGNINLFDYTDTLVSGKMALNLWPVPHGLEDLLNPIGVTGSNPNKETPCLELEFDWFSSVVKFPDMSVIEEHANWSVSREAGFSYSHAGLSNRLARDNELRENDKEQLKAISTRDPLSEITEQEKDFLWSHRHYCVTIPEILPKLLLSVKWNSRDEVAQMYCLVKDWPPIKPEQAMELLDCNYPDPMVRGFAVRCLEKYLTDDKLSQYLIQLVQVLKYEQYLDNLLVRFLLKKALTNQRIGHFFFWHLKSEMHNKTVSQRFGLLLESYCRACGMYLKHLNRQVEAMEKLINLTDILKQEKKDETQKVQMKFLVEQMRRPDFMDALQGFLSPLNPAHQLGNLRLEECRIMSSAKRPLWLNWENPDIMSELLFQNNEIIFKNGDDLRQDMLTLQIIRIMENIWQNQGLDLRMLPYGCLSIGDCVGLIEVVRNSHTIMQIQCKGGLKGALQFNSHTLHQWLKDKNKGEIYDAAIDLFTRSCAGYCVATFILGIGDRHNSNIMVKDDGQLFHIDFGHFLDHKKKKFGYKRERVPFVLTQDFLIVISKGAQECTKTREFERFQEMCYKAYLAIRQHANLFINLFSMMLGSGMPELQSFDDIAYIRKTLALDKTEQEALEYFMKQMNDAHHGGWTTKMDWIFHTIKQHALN
Chain of PI3Kα (P27986 whole entry partner): as the sequence (P27986 whole entry partner) above
Chain of PI3Kβ (P42338 whole entry): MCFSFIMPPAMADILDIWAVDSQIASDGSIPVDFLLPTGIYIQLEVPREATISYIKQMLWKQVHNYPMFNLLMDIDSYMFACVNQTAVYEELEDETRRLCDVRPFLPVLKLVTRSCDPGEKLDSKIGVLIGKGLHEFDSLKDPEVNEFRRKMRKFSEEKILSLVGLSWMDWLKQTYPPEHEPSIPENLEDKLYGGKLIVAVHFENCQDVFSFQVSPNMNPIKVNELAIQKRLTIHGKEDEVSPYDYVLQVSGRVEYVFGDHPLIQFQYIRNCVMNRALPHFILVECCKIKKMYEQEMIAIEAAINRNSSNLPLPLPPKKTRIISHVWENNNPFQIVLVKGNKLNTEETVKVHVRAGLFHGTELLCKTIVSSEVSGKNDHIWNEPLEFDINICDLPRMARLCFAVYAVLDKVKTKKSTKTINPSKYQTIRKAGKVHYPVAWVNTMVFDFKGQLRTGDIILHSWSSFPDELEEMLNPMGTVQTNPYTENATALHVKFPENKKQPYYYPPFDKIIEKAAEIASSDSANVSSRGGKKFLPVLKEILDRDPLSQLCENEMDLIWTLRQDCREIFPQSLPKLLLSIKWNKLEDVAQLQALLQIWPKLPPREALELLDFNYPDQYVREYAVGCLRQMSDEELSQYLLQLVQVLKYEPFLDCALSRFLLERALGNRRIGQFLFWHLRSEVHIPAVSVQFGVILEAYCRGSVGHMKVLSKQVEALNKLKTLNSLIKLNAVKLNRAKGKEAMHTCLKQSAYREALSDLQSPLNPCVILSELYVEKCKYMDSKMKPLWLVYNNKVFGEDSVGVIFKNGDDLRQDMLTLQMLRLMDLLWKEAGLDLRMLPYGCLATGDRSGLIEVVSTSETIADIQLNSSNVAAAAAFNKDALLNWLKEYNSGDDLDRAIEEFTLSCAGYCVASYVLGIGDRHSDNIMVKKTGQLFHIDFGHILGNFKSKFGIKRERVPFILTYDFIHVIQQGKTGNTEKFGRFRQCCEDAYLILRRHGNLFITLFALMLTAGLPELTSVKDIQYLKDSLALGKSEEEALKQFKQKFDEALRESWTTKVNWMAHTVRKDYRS
Chain of PI3Kβ (P27986 whole entry partner): as the sequence (P27986 whole entry partner) above
Chain of PI3Kγ (P48736 whole entry): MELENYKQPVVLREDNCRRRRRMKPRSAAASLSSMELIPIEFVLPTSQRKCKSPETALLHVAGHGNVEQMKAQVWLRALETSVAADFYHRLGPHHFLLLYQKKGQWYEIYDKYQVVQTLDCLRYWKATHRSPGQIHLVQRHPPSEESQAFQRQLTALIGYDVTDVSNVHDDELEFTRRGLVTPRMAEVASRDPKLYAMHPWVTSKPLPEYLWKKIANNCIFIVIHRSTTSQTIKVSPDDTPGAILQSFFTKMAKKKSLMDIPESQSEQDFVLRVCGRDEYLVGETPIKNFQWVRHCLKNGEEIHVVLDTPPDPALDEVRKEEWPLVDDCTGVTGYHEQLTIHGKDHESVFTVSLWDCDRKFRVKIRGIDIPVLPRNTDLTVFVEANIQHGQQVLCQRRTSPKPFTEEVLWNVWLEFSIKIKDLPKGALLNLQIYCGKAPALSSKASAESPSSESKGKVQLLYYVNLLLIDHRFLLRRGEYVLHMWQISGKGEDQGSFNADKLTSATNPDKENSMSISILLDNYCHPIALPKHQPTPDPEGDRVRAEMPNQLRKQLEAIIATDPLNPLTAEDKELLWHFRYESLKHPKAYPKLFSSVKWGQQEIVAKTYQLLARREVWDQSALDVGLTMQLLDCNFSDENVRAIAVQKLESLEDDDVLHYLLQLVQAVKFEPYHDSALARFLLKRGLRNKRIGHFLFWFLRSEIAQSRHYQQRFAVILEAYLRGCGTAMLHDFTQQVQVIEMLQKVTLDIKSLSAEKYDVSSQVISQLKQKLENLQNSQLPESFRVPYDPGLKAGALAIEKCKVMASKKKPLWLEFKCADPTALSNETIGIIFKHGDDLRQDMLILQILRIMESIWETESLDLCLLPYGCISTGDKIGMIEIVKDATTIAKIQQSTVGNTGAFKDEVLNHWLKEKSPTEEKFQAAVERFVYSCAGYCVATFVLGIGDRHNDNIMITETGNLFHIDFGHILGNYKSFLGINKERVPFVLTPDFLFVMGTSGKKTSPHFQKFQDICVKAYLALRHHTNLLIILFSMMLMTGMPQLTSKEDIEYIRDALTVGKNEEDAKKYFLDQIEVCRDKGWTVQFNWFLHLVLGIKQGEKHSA

Row | Structure (SMILES) | inhibition at 0.1 µM (PI3Kδ) | inhibition at 0.1 µM (PI3Kγ) | inhibition at 1 µM (PI3Kα) | inhibition at 1 µM (PI3Kβ) | IC50 (PI3Kδ) | IC50 (PI3Kγ)
1 | CC(C)Oc1ccc(-c2nn(C(C)c3cc4cccc(F)c4c(=O)n3-c3ccccc3)c3ncnc(N)c23)cc1F (stereo not shown) [Example 2, 3-(1-(4-amino-3-(3-fluoro-4-isopropoxyphenyl)-1H-pyrazolo[3,4-d]pyrimidin-1-yl)ethyl)-8-fluoro-2-phenylisoquinolin-1(2H)-one] | 0 to 20% | 0 to 20% | 0 to 10% | 10 to 20% | – | –
2 | COc1ccc(-c2nn(C(C)c3cc4cccc(Cl)c4c(=O)n3-c3ccccc3)c3ncnc(N)c23)cc1NS(C)(=O)=O (stereo not shown) [Example 20, N-(5-(4-amino-1-(1-(8-chloro-1-oxo-2-phenyl-1,2-dihydroisoquinolin-3-yl)ethyl)-1H-pyrazolo[3,4-d]pyrimidin-3-yl)-2-methoxyphenyl)methanesulfonamide] | 80 to 100% | 60 to 80% | 40 to 60% | 20 to 40% | – | –
3 | C[C@@H](c1cc2cccc(F)c2c(=O)n1-c1ccccc1)n1nc(-c2ccc(O)c(F)c2)c2c(N)ncnc21 [Example 15a, (+)-3-(1-(4-amino-3-(3-fluoro-4-hydroxyphenyl)-1H-pyrazolo[3,4-d]pyrimidin-1-yl)ethyl)-8-fluoro-2-phenylisoquinolin-1(2H)-one] | 80 to 100% | 40 to 60% | 0 to 10% | 10 to 20% | 9.99 nM | 52 nM
4 | CC(C)Oc1ccc(-c2nn([C@@H](C)c3nc4ccccc4c(=O)n3-c3ccccc3)c3ncnc(N)c23)cc1F [Example 6a, (+)-2-(1-(4-amino-3-(3-fluoro-4-isopropoxyphenyl)-1H-pyrazolo[3,4-d]pyrimidin-1-yl)ethyl)-3-phenylquinazolin-4(3H)-one] | 80 to 100% | 40 to 60% | 0 to 10% | 20 to 40% | 2.74 nM | 15 nM
5 | CC(C)Oc1ccc(-c2nn(C(C)c3nc4ccc(F)cc4c(=O)n3-c3ccccc3)c3ncnc(N)c23)cc1F (stereo not shown) [Example 4, 2-(1-(4-amino-3-(3-fluoro-4-isopropoxyphenyl)-1H-pyrazolo[3,4-d]pyrimidin-1-yl)ethyl)-6-fluoro-3-phenylquinazolin-4(3H)-one] | 0 to 20% | 40 to 60% | 0 to 10% | 20 to 40% | – | –
6 | C[C@@H](c1nc2cccc(F)c2c(=O)n1-c1ccccc1)n1nc(-c2ccc(O)c(F)c2)c2c(N)ncnc21 [Example 16a, (+)-2-(1-(4-amino-3-(3-fluoro-4-hydroxyphenyl)-1H-pyrazolo[3,4-d]pyrimidin-1-yl)ethyl)-5-fluoro-3-phenylquinazolin-4(3H)-one] | 80 to 100% | 20 to 40% | 0 to 10% | 10 to 20% | 33.3 nM | 122 nM
7 | C[C@@H](c1cc2cccc(Cl)c2c(=O)n1-c1ccccc1)n1nc(-c2ccc(OC(F)F)c(F)c2)c2c(N)ncnc21 [Example 17a, (+)-3-(1-(4-amino-3-(4-(difluoromethoxy)-3-fluorophenyl)-1H-pyrazolo[3,4-d]pyrimidin-1-yl)ethyl)-8-chloro-2-phenylisoquinolin-1(2H)-one] | 20 to 40% | 0 to 20% | 0 to 10% | 0 to 10% | – | –
8 | COc1ccc(-c2nn([C@@H](C)c3cc4ccccc4c(=O)n3-c3ccccc3)c3ncnc(N)c23)cc1NS(C)(=O)=O [Example 9a, (+)—N-(5-(4-amino-1-(1-(1-oxo-2-phenyl-1,2-dihydroisoquinolin-3-yl)ethyl)-1H-pyrazolo[3,4-d]pyrimidin-3-yl)-2-methoxyphenyl)methanesulfonamide] | 80 to 100% | 40 to 60% | 0 to 10% | 20 to 40% | 16.2 nM | 203 nM
9 | C[C@@H](c1cc2ccccc2c(=O)n1-c1ccccc1)n1nc(-c2ccc(O)c(F)c2)c2c(N)ncnc21 [Example 7a, (+)-3-(1-(4-amino-3-(3-fluoro-4-hydroxyphenyl)-1H-pyrazolo[3,4-d]pyrimidin-1-yl)ethyl)-2-phenylisoquinolin-1(2H)-one] | 60 to 80% | 60 to 80% | 0 to 10% | 20 to 40% | 13.3 nM | 57.7 nM
10 | C[C@@H](c1cc2cccc(Cl)c2c(=O)n1-c1ccccc1)n1nc(-c2ccc(O)c(F)c2)c2c(N)ncnc21 [Example 14a, (+)-3-(1-(4-amino-3-(3-fluoro-4-hydroxyphenyl)-1H-pyrazolo[3,4-d]pyrimidin-1-yl)ethyl)-8-chloro-2-phenylisoquinolin-1(2H)-one] | 80 to 100% | 80 to 100% | 0 to 10% | 10 to 20% | 4.2 nM | 19.5 nM
11 | CC(C)Oc1ccc(-c2nn(C(C)c3cc4ccccc4c(=O)n3-c3ccccc3)c3ncnc(N)c23)cc1F (stereo not shown) [Example 5, 3-(1-(4-amino-3-(3-fluoro-4-isopropoxyphenyl)-1H-pyrazolo[3,4-d]pyrimidin-1-yl)ethyl)-2-phenylisoquinolin-1(2H)-one] | 80 to 100% | 60 to 80% | 0 to 10% | 10 to 20% | – | –
12 | CC(c1cc2cccc(Cl)c2c(=O)n1-c1ccccc1)n1nc(-c2ccc(OC(F)F)c(F)c2)c2c(N)ncnc21 (stereo not shown) [Example 17, 3-(1-(4-amino-3-(4-(difluoromethoxy)-3-fluorophenyl)-1H-pyrazolo[3,4-d]pyrimidin-1-yl)ethyl)-8-chloro-2-phenylisoquinolin-1(2H)-one] | 80 to 100% | 80 to 100% | 20 to 40% | 40 to 60% | – | –
13 | CC(c1cc2ccccc2c(=O)n1-c1ccccc1)n1nc(-c2ccc(O)c(F)c2)c2c(N)ncnc21 (stereo not shown) [Example 7, 3-(1-(4-amino-3-(3-fluoro-4-hydroxyphenyl)-1H-pyrazolo[3,4-d]pyrimidin-1-yl)ethyl)-2-phenylisoquinolin-1(2H)-one] | 40 to 60% | 20 to 40% | 10 to 20% | 20 to 40% | – | –
14 | COc1ccc(-c2nn(C(C)c3nc4ccccc4c(=O)n3-c3ccccc3)c3ncnc(N)c23)cc1NS(C)(=O)=O (stereo not shown) [Example 12, N-(5-(4-amino-1-(1-(4-oxo-3-phenyl-3,4-dihydroquinazolin-2-yl)ethyl)-1H-pyrazolo[3,4-d]pyrimidin-3-yl)-2-methoxyphenyl)methanesulfonamide] | 0 to 20% | 20 to 40% | 0 to 10% | 20 to 40% | – | –
15 | Cc1n[nH]c2cc(-c3nn([C@@H](C)c4cc5cccc(Cl)c5c(=O)n4-c4ccccc4)c4ncnc(N)c34)ccc12 [Example 21a, (+)-3-(1-(4-amino-3-(3-methyl-1H-indazol-6-yl)-1H-pyrazolo[3,4-d]pyrimidin-1-yl)ethyl)-8-chloro-2-phenylisoquinolin-1(2H)-one] | 80 to 100% | 60 to 80% | 0 to 10% | 0 to 10% | – | –
16 | CC(C)Oc1ccc(-c2nn([C@@H](C)c3cc4ccccc4c(=O)n3-c3ccccc3)c3ncnc(N)c23)cc1F [Example 5a, (+)-3-(1-(4-amino-3-(3-fluoro-4-isopropoxyphenyl)-1H-pyrazolo[3,4-d]pyrimidin-1-yl)ethyl)-2-phenylisoquinolin-1(2H)-one] | 80 to 100% | 60 to 80% | 0 to 10% | 20 to 40% | 3.05 nM | 22.2 nM
17 | CC(C)Oc1ccc(-c2nn(C(C)c3nc4cccc(F)c4c(=O)n3-c3ccccc3)c3ncnc(N)c23)cc1F (stereo not shown) [Example 3, 2-(1-(4-amino-3-(3-fluoro-4-isopropoxyphenyl)-1H-pyrazolo[3,4-d]pyrimidin-1-yl)ethyl)-5-fluoro-3-phenylquinazolin-4(3H)-one] | 0 to 20% | 0 to 20% | 0 to 10% | 10 to 20% | – | –
18 | COc1ccc(-c2nn([C@@H](C)c3cc4cccc(Cl)c4c(=O)n3-c3ccccc3)c3ncnc(N)c23)cc1NS(C)(=O)=O [Example 20a, (+)—N-(5-(4-amino-1-(1-(8-chloro-1-oxo-2-phenyl-1,2-dihydroisoquinolin-3-yl)ethyl)-1H-pyrazolo[3,4-d]pyrimidin-3-yl)-2-methoxyphenyl)methanesulfonamide] | 60 to 80% | 20 to 40% | 0 to 10% | 10 to 20% | 76.4 nM | 142 nM
